Entries after “also recorded” stand apart in the source; their conditions may differ.
How the values were obtained:
[1] = test system: LT-repopulating HSCs (CD34-LKS cells); test: competitive bone marrow transplantation (cBMT) assay; assay type: in vivo, mouse
Method: Figure 3 Treatment of c-Kit-enriched murine BM cells with p18SMI compounds enhances HSC expansion. (A) The average number of total cells, HSPCs (Lin^−Sca1^+) and long term (LT)-HSCs (Lin^-Sca1^+CD48^−CD150^+) were analyzed by flow cytometry. (B) Single CD34^−LKS cell were deposited into each well of a 96-well plate, along with differentiation medium plus different concentrations of p18SMI compounds to show the dose-response effect of p18SMI compounds. (C) CAFC-LDA assay of cells treated with XIE18-6, compound 40 and DMSO to reveal the frequency of primitive HSCs. Above data (A–C) is mean ± SEM for all experiments of two or more and were performed in duplicate or triplicate. (D) Experimental design for transplantation (n = 10). CD34^-LKS cells were sorted into 96-well plates at 50 cells/well and cultured for 3 days with cytokine plus 20 μM of compounds or DMSO. Cells from each well were mixed with 2 × 10^6 freshly isolated bone marrow MNCs and co-transplanted by tail-vein injection into lethally irradiated CD45.2 recipient mice. 16 weeks after transplantation, bone marrow MNCs were stained to determine the engraftment level of donor cells. Bone marrow MNCs were also stained for lineage analysis. Multi-lineage differentiation was examined by flow cytometry. GM, T and B indicate lineages for myeloid, T and B cells, respectively. (E,F) The engraftment levels at 16 weeks after primary transplantation, and multi-lineage differentiation profile. Data is mean ± SEM for all experiments (***p < 0.001, **p < 0.01). TEXT PRINTED IN THE PICTURE: (E) #40: Engrafment%: *** 5.93X | (E) XIE18-6: Engrafment%: ** 3.01X DOUBTS OF THE COPYIST ABOUT THIS PICTURE: Panel E: 5.93X and 3.01X are printed on brackets running from #40 and from XIE18-6 to DMSO. No measure is printed beside them, so the axis label 'Engrafment%' was used as the measure.
The increased frequency and total number of functional LT-HSCs after treatment with p18SMI compounds was further confirmed by competitive bone marrow transplantation (cBMT) assay (Fig. 3D). CD34^-LKS cells were first sorted and cultured w/o p18SMI compound for 3 days. Then the cultured cells were gathered and co-transplanted into lethally irradiated mice with competitor cells. […] Moreover, the engraftment of the group treated with compound 40 was double of that of the group treated with XIE18–6.

[2] = test system: c-Kit-enriched BM cells (progenitor cells, HSPCs, LT-HSCs); test: CFSE cell division assay; assay type: cell-based, mouse; conditions: LT-HSC
Excerpt: We have previously shown that deficiency of p18 may enhance HSCs expansion by inducing primitive phenotypes after each cell division in vivo[19]. To obtain direct evidence that compound 40 promotes primitive phenotypes after each cell division, we measured cell divisions in distinct immunophenotypically-defined populations of cells treated with p18SMI compound. 5- (and 6-) carboxy-fluorescein diacetatesuccinimidylester (CFSE) dye was used to label the c-Kit-enriched BM cells before culture. Surface markers for progenitor cells, HSPCs and LT-HSCs were used to co-stain the BM cells that were harvested 5 days after treatment with the p18SMI compound. The number of initial cell divisions was measured based on the intensity of CFSE in each cell population. Consistent with previous phenotype results, little effect on the progenitor cells and HSPCs populations was observed (Fig. 5A).
Prior to culture, cKit-enriched BM cells (1 × 10^6/mL) were labeled with 5- (and 6-) carboxy-fluorescein diacetatesuccinimidylester (CFSE) dye (3 μM, Molecular Probes) in PBS supplemented with 0.1% bovine serum albumin. Labeling was performed in the dark at 37 °C for 10 min. […] During cell division, CFSE is distributed equally between daughter cells so that the generation of cells could be reflected by the content of CFSE and measured by the intensity of fluorescence. […]

LT-HSCs = test: dependence of HSC expansion on CDK4/6 versus CDK2 (co-treatment with CDK inhibitors); assay type: cell-based, mouse
Excerpt: To assess a direct role for p18-CDK6 signaling in HSCs expansion induced by compound 40, we used the CDK4/6-specific inhibitor PD0332991 to block CDK6 activation. As a control, we blocked CDK2 with SNS032, a CDK2 selective inhibitor. […] So here we wanted to explore whether p18SMI compound’s HSCs expansion effect was abrogated by CDK4/6 inhibitor or CDK2 inhibitor.

[3] = test system: c-Kit enriched BM cells (primary hematopoietic cells); test: apoptosis analysis by Annexin V staining; assay type: cell-based; conditions: effective concentration (20 μM), 5 days, compared with negative control group
Method: First, a cell-proliferation assay was performed on the immortalized myeloblast-like cell line 32D cells to evaluate general cytotoxicity. […] We also evaluated cytotoxicity using primary hematopoietic cells.
Figure 6 Cytotoxicity assessment of top p18SMI compounds. (A) Cell proliferation assay was performed on 32D cells to evaluate general cytotoxicity. The cell survival was determined by the MTT assay. (B) Apoptosis statistics analysis of cultured c-Kit enriched BM cells which were cultured with cytokine plus 20 μM compound 40 or DMSO. Uncultured bone marrow cells were irradiated by UV to serve as positive control. Apoptosis was checked by Annexin V staining on hematopoietic cells. (C,D) Proliferation effect of compound 40 on leukemia cell lines KG-1 and KG-1a. The cell survival was determined with the MTT assay. Data is mean ± SEM for all experiments of two or more and were performed in duplicate or triplicate.
c-Kit enriched BM cells were cultured for 5 days with cytokine combination plus compound 40 or DMSO. […] Apoptosis and cell death were measured by AnnexinV and DAPI staining according to the manufacturer’s instructions in the Annexin V-FITC Apoptosis Detection Kit (BD Biosciences). Apoptosis was measured on an FACS analyzer (LSR Fortessa, BD Biosciences). The data was analyzed using FlowJo software (Treestar, Inc.).

O=C([O-])c1ccc(S(=O)(=O)NC2CCCCC2)cc1.[Na+] [Compound 40, sodium 4-(N-cyclohexylsulfamoyl)benzoate]
engraftment relative to the group treated with XIE18–6 ([1]; 16 weeks after transplantation): double | multi-lineage differentiation profile (GM, T, B) compared with the control group ([1]; 16 weeks after transplantation): did not cause predominant growth of any specific lineages | increase in engraftment compared with the DMSO control group ([1]; CD34-LKS cells cultured 3 days with 20 μM compound, co-transplanted with competitor cells into lethally irradiated mice, bone marrow 16 weeks after transplantation): 5.93 fold | increase in engraftment compared with the uncultured group ([1]; cells cultured 3 days with 20 μM compound, 16 weeks after transplantation): 4.34 fold | % Divided [2]: 65.2% | number of LT-HSCs (LT-HSCs; in the PD0332991-treated group (CDK4/6-specific inhibitor)): failed to increase | number of LT-HSCs (LT-HSCs; in the SNS032-treated group (CDK2 selective inhibitor)): still enhanced | cytotoxicity / apoptotic cell death in primary hematopoietic cells (HSCs) [3]: did not show significant cytotoxicity; also recorded: did not increase apoptotic cell death; also recorded: not cytotoxic
